In the supplement of paper PMC10307832:

Columns and labels:
Assay in all cases: relative viability (nuclei count vs DMSO), 5 days (fraction); higher = more cells survive
LCLC-103H = system: LCLC-103H
Summary of the method: (§1)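 Relative viability is defined as nuclei in treated wells over nuclei in vehicle wells. Duplicate plates were run and medians reported. Lung cancer cell lines in 1536-well plates were dosed by pin tool one day after seeding, with one drug or with a fixed anchor-drug dose plus five library-drug doses (not always all listed) in √10 steps, and nuclei were counted after 5 days.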

LOU-NH91 = system: LOU-NH91
Summary of the method: as §1

NCI-H1734 = system: NCI-H1734
Summary of the method: as §1

NCI-H1355 = system: NCI-H1355
Summary of the method: as §1

NCI-H1666 = system: NCI-H1666
Summary of the method: as §1

NCI-H441 = system: NCI-H441
Summary of the method: as §1

NCI-H1792 = system: NCI-H1792
Summary of the method: as §1

RERF-LC-KJ = system: RERF-LC-KJ
Summary of the method: as §1

SK-LU-1 = system: SK-LU-1
Summary of the method: as §1

H3255 = system: H3255
Summary of the method: as §1

NCI-H1975 = system: NCI-H1975
Summary of the method: as §1

NCI-H647 = system: NCI-H647
Summary of the method: as §1

NCI-H1793 = system: NCI-H1793
Summary of the method: as §1

NCI-H1915 = system: NCI-H1915
Summary of the method: as §1

NCI-H1944 = system: NCI-H1944
Summary of the method: as §1

NCI-H1651 = system: NCI-H1651
Summary of the method: as §1

NCI-H2023 = system: NCI-H2023
Summary of the method: as §1

UMC-11 = system: UMC-11
Summary of the method: as §1

NCI-H2405 = system: NCI-H2405
Summary of the method: as §1

201T = system: 201T
Summary of the method: as §1

EPLC-272H = system: EPLC-272H
Summary of the method: as §1

## COCC1(CO)C(=O)C2CCN1CC2 (configuration not stated) [PRIMA-1MET] + Cc1nc(NC(=O)N2CCC[C@H]2C(N)=O)sc1-c1ccnc(C(C)(C)C(F)(F)F)c1 [Alpelisib] (partner 2 µM)
LCLC-103H; first compound 0.2 µM
  relative viability: 1.1
LCLC-103H; first compound 0.6325 µM
  relative viability: 0.966
LCLC-103H; first compound 2 µM
  relative viability: 0.793
LCLC-103H; first compound 6.325 µM
  relative viability: 1.09
LCLC-103H; first compound 20 µM
  relative viability: 0.935
LOU-NH91; first compound 0.2 µM
  relative viability: 0.78
LOU-NH91; first compound 0.6325 µM
  relative viability: 0.652
LOU-NH91; first compound 2 µM
  relative viability: 0.569
LOU-NH91; first compound 6.325 µM
  relative viability: 0.669
LOU-NH91; first compound 20 µM
  relative viability: 0.507
NCI-H1734; first compound 0.2 µM
  relative viability: 0.876
NCI-H1734; first compound 0.6325 µM
  relative viability: 0.658
NCI-H1734; first compound 2 µM
  relative viability: 0.679
NCI-H1734; first compound 6.325 µM
  relative viability: 0.73
NCI-H1734; first compound 20 µM
  relative viability: 0.3
NCI-H1355; first compound 0.2 µM
  relative viability: 0.953
NCI-H1355; first compound 0.6325 µM
  relative viability: 0.7
NCI-H1355; first compound 2 µM
  relative viability: 0.766
NCI-H1355; first compound 6.325 µM
  relative viability: 0.86
NCI-H1355; first compound 20 µM
  relative viability: 0.852
NCI-H1666; first compound 0.2 µM
  relative viability: 1.1
NCI-H1666; first compound 0.6325 µM
  relative viability: 0.879
NCI-H1666; first compound 2 µM
  relative viability: 0.999
NCI-H1666; first compound 6.325 µM
  relative viability: 0.834
NCI-H1666; first compound 20 µM
  relative viability: 0.123
NCI-H441; first compound 0.2 µM
  relative viability: 0.648
NCI-H441; first compound 0.6325 µM
  relative viability: 0.792
NCI-H441; first compound 2 µM
  relative viability: 0.762
NCI-H441; first compound 6.325 µM
  relative viability: 0.816
NCI-H441; first compound 20 µM
  relative viability: 0.118
NCI-H1792; first compound 0.2 µM
  relative viability: 0.708
NCI-H1792; first compound 0.6325 µM
  relative viability: 0.557
NCI-H1792; first compound 2 µM
  relative viability: 0.456
NCI-H1792; first compound 6.325 µM
  relative viability: 0.754
NCI-H1792; first compound 20 µM
  relative viability: 0.687
RERF-LC-KJ; first compound 0.2 µM
  relative viability: 0.797
RERF-LC-KJ; first compound 0.6325 µM
  relative viability: 0.835
RERF-LC-KJ; first compound 2 µM
  relative viability: 0.715
RERF-LC-KJ; first compound 6.325 µM
  relative viability: 1.01
RERF-LC-KJ; first compound 20 µM
  relative viability: 0.75
SK-LU-1; first compound 0.2 µM
  relative viability: 1.11
SK-LU-1; first compound 0.6325 µM
  relative viability: 0.918
SK-LU-1; first compound 2 µM
  relative viability: 1.04
SK-LU-1; first compound 6.325 µM
  relative viability: 0.99
SK-LU-1; first compound 20 µM
  relative viability: 0.109
H3255; first compound 0.2 µM
  relative viability: 0.845
H3255; first compound 0.6325 µM
  relative viability: 0.547
H3255; first compound 2 µM
  relative viability: 0.574
H3255; first compound 6.325 µM
  relative viability: 0.793
H3255; first compound 20 µM
  relative viability: 0.666
NCI-H1975; first compound 0.2 µM
  relative viability: 0.822
NCI-H1975; first compound 0.6325 µM
  relative viability: 0.603
NCI-H1975; first compound 2 µM
  relative viability: 0.694
NCI-H1975; first compound 6.325 µM
  relative viability: 0.68
NCI-H1975; first compound 20 µM
  relative viability: 0.574
NCI-H647; first compound 0.2 µM
  relative viability: 1.33
NCI-H647; first compound 0.6325 µM
  relative viability: 1.04
NCI-H647; first compound 2 µM
  relative viability: 1.13
NCI-H647; first compound 6.325 µM
  relative viability: 1.09
NCI-H647; first compound 20 µM
  relative viability: 0.892
NCI-H1793; first compound 0.2 µM
  relative viability: 0.953
NCI-H1793; first compound 0.6325 µM
  relative viability: 0.676
NCI-H1793; first compound 6.325 µM
  relative viability: 0.736
NCI-H1793; first compound 20 µM
  relative viability: 0.707
NCI-H1915; first compound 0.2 µM
  relative viability: 1.15
NCI-H1915; first compound 0.6325 µM
  relative viability: 0.861
NCI-H1915; first compound 2 µM
  relative viability: 0.853
NCI-H1915; first compound 6.325 µM
  relative viability: 1.01
NCI-H1915; first compound 20 µM
  relative viability: 0.974
NCI-H1944; first compound 0.2 µM
  relative viability: 1.01
NCI-H1944; first compound 0.6325 µM
  relative viability: 0.719
NCI-H1944; first compound 6.325 µM
  relative viability: 0.849
NCI-H1944; first compound 20 µM
  relative viability: 0.823
NCI-H1651; first compound 0.2 µM
  relative viability: 0.904
NCI-H1651; first compound 0.6325 µM
  relative viability: 0.981
NCI-H1651; first compound 2 µM
  relative viability: 1.17
NCI-H1651; first compound 6.325 µM
  relative viability: 0.962
NCI-H1651; first compound 20 µM
  relative viability: 0.837
NCI-H2023; first compound 0.2 µM
  relative viability: 0.7
NCI-H2023; first compound 0.6325 µM
  relative viability: 0.69
NCI-H2023; first compound 2 µM
  relative viability: 0.564
NCI-H2023; first compound 6.325 µM
  relative viability: 0.615
NCI-H2023; first compound 20 µM
  relative viability: 0.568
UMC-11; first compound 0.2 µM
  relative viability: 1.03
UMC-11; first compound 0.6325 µM
  relative viability: 0.824
UMC-11; first compound 2 µM
  relative viability: 1.07
UMC-11; first compound 6.325 µM
  relative viability: 1.13
UMC-11; first compound 20 µM
  relative viability: 0.899
NCI-H2405; first compound 0.2 µM
  relative viability: 0.517
NCI-H2405; first compound 0.6325 µM
  relative viability: 0.896
NCI-H2405; first compound 6.325 µM
  relative viability: 0.625
NCI-H2405; first compound 20 µM
  relative viability: 0.0731
201T; first compound 0.2 µM
  relative viability: 1.04
201T; first compound 0.6325 µM
  relative viability: 0.971
201T; first compound 2 µM
  relative viability: 0.885
201T; first compound 6.325 µM
  relative viability: 1.05
201T; first compound 20 µM
  relative viability: 1.03
EPLC-272H; first compound 0.2 µM
  relative viability: 1.06
EPLC-272H; first compound 0.6325 µM
  relative viability: 0.784
EPLC-272H; first compound 2 µM
  relative viability: 0.869
EPLC-272H; first compound 6.325 µM
  relative viability: 0.869
EPLC-272H; first compound 20 µM
  relative viability: 0.667
